Source: patent US20260102501A1, “ANTI-CANCER NUCLEAR HORMONE RECEPTOR-TARGETING COMPOUNDS” (Nuvation Bio Inc., priority 2022, published 2026)
Substitutions are numbered along the chain they refer to. pIC50: −log10 of the molar value. Read-outs that look alike come from different tables or passages of the source.

What was measured:
[1] = test system: LNCap cells; test: Cell viability assay (CellTiterGlo); assay type: cell-based; settings: Homo sapiens, 144 h; for pIC50: 6 days incubation, CellTiterGlo, read-out: LNCap (IC50); for IC50: read-out: LNCap (IC50, nM)
[2] = test system: 22Rv1 cells; test: Cell viability assay (CellTiterGlo); settings: Homo sapiens, 22Rv1, 144 h, read-out: 22RV1 (IC50, nM)
[3] = molecular target: T1, full-length androgen receptor (HEK293 cells stably expressing) (Homo sapiens, UniProt P10275); test: AR antagonism assay (luciferase reporter)
T1 sequence (P10275 1-920): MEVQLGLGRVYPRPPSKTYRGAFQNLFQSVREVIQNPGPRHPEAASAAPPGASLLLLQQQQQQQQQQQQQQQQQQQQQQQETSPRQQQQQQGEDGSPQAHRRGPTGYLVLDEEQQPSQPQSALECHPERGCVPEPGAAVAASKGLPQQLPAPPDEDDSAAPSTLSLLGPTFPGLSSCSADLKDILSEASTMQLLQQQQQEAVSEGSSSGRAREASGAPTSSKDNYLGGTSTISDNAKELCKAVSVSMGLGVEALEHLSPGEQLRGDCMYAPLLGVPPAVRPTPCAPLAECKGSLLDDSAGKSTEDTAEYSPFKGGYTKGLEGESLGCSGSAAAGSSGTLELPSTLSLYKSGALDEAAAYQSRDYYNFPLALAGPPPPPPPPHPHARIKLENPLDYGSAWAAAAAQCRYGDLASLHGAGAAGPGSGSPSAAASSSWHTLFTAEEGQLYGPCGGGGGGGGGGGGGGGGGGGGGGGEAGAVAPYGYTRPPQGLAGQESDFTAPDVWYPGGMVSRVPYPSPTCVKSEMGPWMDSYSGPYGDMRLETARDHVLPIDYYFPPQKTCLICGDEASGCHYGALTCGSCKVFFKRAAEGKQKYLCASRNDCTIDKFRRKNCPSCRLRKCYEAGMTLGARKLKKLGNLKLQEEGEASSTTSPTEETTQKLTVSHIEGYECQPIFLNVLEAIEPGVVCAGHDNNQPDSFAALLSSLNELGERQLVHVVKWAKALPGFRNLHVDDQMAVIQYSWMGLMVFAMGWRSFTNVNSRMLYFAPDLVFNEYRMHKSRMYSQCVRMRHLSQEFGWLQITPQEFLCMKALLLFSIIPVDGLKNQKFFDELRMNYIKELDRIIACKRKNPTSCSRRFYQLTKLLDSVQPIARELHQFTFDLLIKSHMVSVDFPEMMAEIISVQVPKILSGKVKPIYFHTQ
Description: AR antagonism assay: To evaluate AR antagonist activity, test compound was added to the assay plate (top dose 10 μM, 3 fold serial dilution, 10 point dose response). HEK293 cells stably expressing the full-length androgen receptor were seeded at a density of 20000 cells/well in the assay plate. The assay plate was then incubated at room temperature for 10 minutes and at 37° C. 5% CO2 for 20 minutes. Testosterone was added to the assay plate at 1 nM final concentration and the assay plate incubated at 37° C., 5% CO2 for 20 h. […] Steady-glo was added to the assay plate and mixed at room temperature for 20 minutes on an orbital shaker, before reading out on the En Vision plate reader.

[4] = molecular target: T2, AR (cytosol from LnCaP cells) (Homo sapiens, UniProt P10275, T878A); test: AR binding assay (3H-R1881 displacement)
T2 sequence (P10275 1-920 T878A): T1 sequence (P10275 1-920) with T878A
Description: The plate was then centrifuged at 3000 rpm for 30 minutes at 4° C.

[5] = test system: IEC6 cells; test: Cell viability assay (CellTiterGlo); settings: Rattus norvegicus, IEC-6, 144 h, read-out: IEC-6 (IC50, nM)

Question: Which results are given for CC[C@@]1(O)C(=O)OCc2c1cc1n(c2=O)Cc2cc3c(CN4CCN(C(=O)CCCCCC5CCN(c6ccc(C(=O)N[C@H]7CC[C@H](Oc8ccc(C#N)c(Cl)c8C)CC7)nn6)CC5)CC4)c(O)ccc3nc2-1 [Compound No. 50]?
Answer: pIC50 [1]: 7.00 to 8.00; IC50 [2]: 10 to 100 nM; pIC50 [3]: < 6.00; pIC50 [4]: 7.00 to 8.00; IC50 [5]: 101 to 1000 nM

Question: Which results are given for CC[C@@]1(O)C(=O)OCc2c1cc1n(c2=O)Cc2cc3c(CN4CCN(C(=O)C5CCN(c6ccc(C(=O)N[C@H]7CC[C@H](Oc8ccc(C#N)c(Cl)c8)CC7)nn6)CC5)CC4)c(OC(=O)N(C(C)C)C(C)C)ccc3nc2-1 [Compound 1, (S)-10-((4-(1-(6-(((1r,4r)-4-(3-Chloro-4-cyanophenoxy)cyclohexyl)carbamoyl)pyridazin-3-yl)piperidine-4-carbonyl)piperazin-1-yl)methyl)-4-ethyl-4-hydroxy-3,14-dioxo-3,4,12,14-tetrahydro-1H-pyrano[3′,4′:6,7]indolizino[1,2-b]quinolin-9-yl Diisopropylcarbamate]?
Answer: IC50 [1]: > 1000 nM; IC50 [2]: > 1000 nM; pIC50 [3]: < 6.00; pIC50 [4]: 6.00 to 7.00; IC50 [5]: > 1000 nM

Question: With CC[C@@]1(O)C(=O)OCc2c1cc1n(c2=O)Cc2cc3c(CN(C)C)c(OC(=O)N4CCN(CCCCCCO[C@H]5CC[C@H]6[C@@H]7CCC8=CC(=O)CCC8=C7CC[C@]56C)CC4)ccc3nc2-1 [Compound 45, (S)-10-((dimethylamino)methyl)-4-ethyl-4-hydroxy-3,14-dioxo-3,4,12,14-tetrahydro-1H-pyrano[3′,4′:6,7]indolizino[1,2-b]quinolin-9-yl 4-(6-(((8S,13S,14S,17S)-13-methyl-3-oxo-2,3,6,7,8,11,12,13,14,15,16,17-dodecahydro-1H-cyclopenta[a]phenanthren-17-yl)oxy)hexyl)piperazine-1-carboxylate] as the compound, how does the IC50 [1] read?
Answer: The IC50 was 10 to 100 nM.

Question: What about the IC50 [2] of the same compound?
Answer: The IC50 was 10 to 100 nM.

Question: And the pIC50 [3]?
Answer: The pIC50 was 6.00 to 7.00.

Question: What about the pIC50 [4] of the same compound?
Answer: The pIC50 was 7.00 to 8.00.

Question: And the IC50 [5]?
Answer: Its IC50 is 101 to 1000 nM.

Question: Which results are given for CC[C@@]1(O)C(=O)OCc2c1cc1n(c2=O)Cc2cc3c(CN4CCN(C(=O)C5CCN(c6ccc(C(=O)N[C@H]7CC[C@H](Oc8ccc(C#N)c(Cl)c8)CC7)nn6)CC5)CC4)c(OC(=O)N4CCC(N5CCCCC5)CC4)ccc3nc2-1 [Compound No. 13, (S)-10-((4-(1-(6-(((1r,4r)-4-(3-Chloro-4-cyanophenoxy)cyclohexyl)carbamoyl)pyridazin-3-yl)piperidine-4-carbonyl)piperazin-1-yl)methyl)-4-ethyl-4-hydroxy-3,14-dioxo-3,4,12,14-tetrahydro-1H-pyrano[3′,4′:6,7]indolizino[1,2-b]quinolin-9-yl [1,4′-bipiperidine]-1′-carboxylate]?
Answer: IC50 [1]: > 1000 nM; IC50 [2]: > 1000 nM; pIC50 [4]: 7.00 to 8.00; IC50 [5]: > 1000 nM

Question: CC[C@@]1(O)C(=O)OCc2c1cc1n(c2=O)Cc2cc3c(CN(C)C)c(OC(=O)N4CCN(CC5CCN(c6ccc(N7C(=S)N(c8ccc(C#N)c(Cl)c8)C(=O)C7(C)C)cc6)CC5)CC4)ccc3nc2-1 [Compound 58, (S)-10-((dimethylamino)methyl)-4-ethyl-4-hydroxy-3,14-dioxo-3,4,12,14-tetrahydro-1H-pyrano[3′,4′:6,7]indolizino[1,2-b]quinolin-9-yl 4-((1-(4-(3-(3-chloro-4-cyanophenyl)-5,5-dimethyl-4-oxo-2-thioxoimidazolidin-1-yl)phenyl)piperidin-4-yl)methyl)piperazine-1-carboxylate] was tested. Which IC50 [1] did it give?
Answer: The IC50 was 101 to 1000 nM.

Question: What about the IC50 [2] of the same compound?
Answer: The IC50 was 10 to 100 nM.

Question: And the pIC50 [4]?
Answer: Its pIC50 is 7.00 to 8.00.

Question: What about the IC50 [5] of the same compound?
Answer: Its IC50 is 101 to 1000 nM.

Question: With CC[C@@]1(O)C(=O)OCc2c1cc1n(c2=O)Cc2cc3c(CN(C)C)c(OCC4CCN(C(=O)C5CCN(c6ccc(C(=O)N[C@H]7CC[C@H](Oc8ccc(C#N)c(Cl)c8)CC7)nn6)CC5)CC4)ccc3nc2-1 [Compound No. 16, N-((1r,4r)-4-(3-Chloro-4-cyanophenoxy)cyclohexyl)-6-(4-(4-((((S)-10-((dimethylamino)-methyl)-4-ethyl-4-hydroxy-3,14-dioxo-3,4,12,14-tetrahydro-1H-pyrano[3′,4′:6,7]indolizino[1,2-b]quinolin-9-yl)oxy)methyl)piperidine-1-carbonyl)piperidin-1-yl)pyridazine-3-carboxamide] as the compound, how does the pIC50 [1] read?
Answer: Its pIC50 is 6.00 to 7.00.

Question: And the IC50 [2]?
Answer: The IC50 was 101 to 1000 nM.

Question: And the pIC50 [4]?
Answer: The pIC50 was 7.00 to 8.00.

Question: What about the IC50 [5] of the same compound?
Answer: Its IC50 is greater than 1000 nM.

Question: CC[C@@]1(O)C(=O)OCc2c1cc1n(c2=O)Cc2cc3c(CN4CCN(C(=O)C5CCN(c6ccc(C(=O)N[C@H]7CC[C@H](Oc8ccc(C#N)c(Cl)c8)CC7)nn6)CC5)CC4)c(OC(=O)N4CCN(C)CC4)ccc3nc2-1 [Compound No. 10, (S)-10-((4-(1-(6-(((1r,4r)-4-(3-Chloro-4-cyanophenoxy)cyclohexyl)carbamoyl)pyridazin-3-yl)piperidine-4-carbonyl)piperazin-1-yl)methyl)-4-ethyl-4-hydroxy-3,14-dioxo-3,4,12,14-tetrahydro-1H-pyrano[3′,4′:6,7]indolizino[1,2-b]quinolin-9-yl 4-Methylpiperazine-1-carboxylate] was tested. Which IC50 [1] did it give?
Answer: Its IC50 is greater than 1000 nM.

Question: And the IC50 [2]?
Answer: The IC50 was greater than 1000 nM.

Question: What about the pIC50 [4] of the same compound?
Answer: Its pIC50 is 7.00 to 8.00.

Question: And the IC50 [5]?
Answer: Its IC50 is greater than 1000 nM.

Question: Which IC50 [1] does the source give for CC[C@@]1(O)C(=O)OCc2c1cc1n(c2=O)Cc2cc3c(CN(C)C)c(OC(=O)N4C[C@H](C)N(C(=O)C5CCN(c6ccc(C(=O)N[C@H]7CC[C@H](N(C)c8ccc(C#N)c(Cl)c8)CC7)nn6)CC5)C[C@H]4C)ccc3nc2-1 [Compound No. 17, (S)-10-((Dimethylamino)methyl)-4-ethyl-4-hydroxy-3,14-dioxo-3,4,12,14-tetrahydro-1H-pyrano[3′,4′:6,7]indolizino[1,2-b]quinolin-9-yl (2R,5S)-4-(1-(6-(((1r,4r)-4-((3-chloro-4-cyanophenyl)(methyl)-amino)cyclohexyl)carbamoyl)pyridazin-3-yl)piperidine-4-carbonyl)-2,5-dimethylpiperazine-1-carboxylate] here?
Answer: Its IC50 is 101 to 1000 nM.

Question: And the IC50 [2]?
Answer: The IC50 was 101 to 1000 nM.

Question: And the pIC50 [4]?
Answer: Its pIC50 is 7.00 to 8.00.

Question: What about the IC50 [5] of the same compound?
Answer: The IC50 was greater than 1000 nM.

Question: Which IC50 [1] does the source give for CC[C@@]1(O)C(=O)OCc2c1cc1n(c2=O)Cc2cc3c(CN(C)C)c(OC(=O)N4CCN(C(=O)CCCCCNC(=O)c5ccc(N6C(=S)N(c7ccc(C#N)c(C(F)(F)F)c7)C(=O)C6(C)C)cc5F)CC4)ccc3nc2-1 [Compound 9, (S)-10-((Dimethylamino)methyl)-4-ethyl-4-hydroxy-3,14-dioxo-3,4,12,14-tetrahydro-1H-pyrano[3′,4′:6,7]indolizino[1,2-b]quinolin-9-yl 4-(6-(4-(3-(4-cyano-3-(trifluoromethyl)phenyl)-5,5-dimethyl-4-oxo-2-thioxoimidazolidin-1-yl)-2-fluorobenzamido)hexanoyl)piperazine-1-carboxylate] here?
Answer: The IC50 was 10 to 100 nM.

Question: What about the IC50 [2] of the same compound?
Answer: The IC50 was 10 to 100 nM.

Question: What about the pIC50 [4] of the same compound?
Answer: Its pIC50 is less than 6.00.

Question: What about the IC50 [5] of the same compound?
Answer: The IC50 was greater than 1000 nM.
